Source: patent US11529318B2, “Devices and methods for local delivery of tacrolimus” (UNIVERSITY OF PITTSBURGH—OF THE COMMONWEALTH SYSTEM OF …, priority 2017, dated 2022)
Where two headings read alike, the source gives them in different places.

Tests used:
[1] = test system: GAP-43 expression; assay: GAP-43 immunohistochemistry of optic nerve after optic nerve crush; assay type: in vivo, Sprague-Dawley rats; settings: 14 days after optic nerve crush, systemic tacrolimus treatment
[2] = test system: glial fibrillary acidic protein (GFAP) expression; assay: GFAP immunohistochemistry of optic nerve after optic nerve crush; assay type: in vivo, Sprague-Dawley rats; settings: 14 days after optic nerve crush, systemic tacrolimus treatment, compared to uncrushed controls
Protocol: Optic nerve ischemia and PEUU-Tac matrix application. Animals were anesthetized by intraperitoneal injection of 45:10 mg/kg ketamine/xylazine cocktail. Once anaesthetized, the optic nerve was exposed by making a small incision and then creating a nearly bloodless plane through the conjunctiva by blunt dissection with #5 forceps. The surrounding muscle and connective tissue around the optic nerve were then gently separated until the optic nerve was exposed. Using a Yasagril aneurysm clip, the right optic nerve was clamped ˜2 mm behind the globe for 10 seconds (Sarikcioglu, Demir et al. 2007). After removing the clip, ophthalmic artery integrity was confirmed by visualization. For some animals, the optic nerve sheath was fenestrated at the injury site by making an 1-2 mm incision. For animals receiving PEUU-Tac, a 1×5 mm section cut from a 10 mg PEUU-Tac matrix was sutured around the injury site and then secured by suturing to the outer sheath. After each optic nerve procedure, the conjunctiva was sutured and antibiotic ointment (Gentamicin, Bausch & Lomb, Tampa, Fla.) was applied to the eye. In total, twenty-eight animals received acute optic nerve ischemia to the right optic nerve with or without a PEUU-Tac wrap.
Immunohistochemistry. […]

[3] = test system: retinal ganglion cells (RGCs); assay: RGC neurite growth and branching analysis; assay type: cell-based, rat
Protocol: Retinal ganglion cell isolation. RGCs were isolated from female and male postnatal day three (P3) Sprague-Dawley rat pups, purified by immunopanning, and cultured in NB-SATO media as previously described (Barres, Silverstein et al. 1988). The RGCs were seeded (5×10^3/cm^2) on cell culture plates coated with poly-D-lysine (70 kDa, 10 μg/mL; Sigma-Aldrich Corp., St. Louis, Mo., USA) and laminin (2 μg/mL, Sigma-Aldrich Corp.), and maintained at 37° C. in 10% CO2 for 3 days.
RGC neurite growth analysis. Neurite growth was analyzed as previously described (Steketee, Oboudiyat et al. 2014). Briefly, RGCs were fixed after 3 DIV with 4% paraformaldehyde (Alfa Aesar; 30525-89-4) in PBS, washed with PBS (2×), and permeabilized with 0.2% triton X-100 in PBS for 15 minutes. After blocking for 1 hour (1% BSA, Fisher Scientific), the RGCs were incubated in anti-β III tubulin (1:300, TUJ-1, Millipore) at 4° C. overnight, washed in PBS (3×), incubated with a FITC-rabbit anti-chicken IgY H+L (1:150, #31501, Thermo Scientific) for 3 hours, washed with PBS (3×), counterstained with the nuclear marker DAPI (1:3000, Invitrogen) for 20 minutes at room temperature, and washed in PBS (2×, 5 min. each). The RGCs were observed as above using epifluorescent microscopy and analyzed using the ImageJ plugin, NeuronJ (National Institutes of Health, Bethesda, Md., USA). Neurites were defined as any projection longer than twice the cell body, and branches were quantified as the number of secondary neurites extending from a primary neurite that originated at the cell body. At least 30 neurons were analyzed blindly as previously described for three independent experimental repeats, totaling at least 90 neurons per condition.

[4] = reference range; cited from earlier work
[5] = Tacrolimus concentration in infra orbital nerves, muscle and PEUU wraps (Example 3); assay type: in vivo, Lewis rats; settings: Lewis, rat, daily intraperitoneal injections 1 mg/kg for 14 days
Protocol: Animals and Surgeries. All animals received care in compliance with the Institutional Animal Care and Use Committee and protocol approval from the University of Pittsburgh and followed guidelines from the Guide for the Care and Use of Laboratory Animals published by the U.S. National Institutes of Health. 10 Lewis rats (RT1) per group (treatment group, non-treatment group), aged 8-10 weeks, were anesthetized with 50 mg/kg intraperitoneal pentobarbital sodium and supplemented as necessary with 10 mg/kg injections. Sterile technique were utilized for all surgeries and a heating pad was used to maintain core animal temperature at 37° C.
The surgical procedure is described in depth in Xiao et al., 2016 and is briefly defined here. Proximal to the mystacial pad, an incision was made on the left hemiface distal to where the infraorbital nerve exits from the infraorbital foramen. Tissue was discretely dissected in order to expose the infraorbital branch of the trigeminal nerve and was transected using microscissors. […]
Quantification of Tacrolimus concentration in infra orbital nerves, muscle, and PEUU wraps. […] Drug concentration was measured by L-CMS/MS and the results were expressed as ng/g of tissue or wrap weight.
Quantification of Tacrolimus by LC-Tandem Mass Spectrometry (LC-MS/MS). […]

C=CC[C@@H]1/C=C(\C)C[C@H](C)C[C@H](OC)[C@H]2O[C@@](O)(C(=O)C(=O)N3CCCC[C@H]3C(=O)O[C@H](/C(C)=C/[C@@H]3CC[C@@H](O)[C@H](OC)C3)[C@H](C)[C@@H](O)CC1=O)[C@H](C)C[C@@H]2OC [tacrolimus]
GAP-43 expression in optic nerve [1]: no significant GAP-43 expression | GFAP expression in optic nerve [2]: did not cause significant GFAP expression | share of the increase in total neurite growth manifested in axon growth [3]: 90% | neurite growth compared to all other conditions, including media control ([3]; 50 μM and 100 μM tacrolimus): significantly decreased | longest neurite (axon) growth ([3]; 3 DIV): increased | neurite branching ([3]; 3 DIV): without a change | concentration at which total neurite growth was optimal ([3]; 3 DIV, axons and dendrites): 5 µM | axonal outgrowth ([3]; assays with RGCs and microglia): did not show an increase | total and longest neurite growth ([3]; assays with RGCs only): significantly increased | typical therapeutic trough levels (blood) [4]: 10 to 20 ng/g | concentration at 14 days ([5]; infra orbital nerves (IONs), read-out: tacrolimus concentration in IONs): ~196 ng/g | concentration at 14 days ([5]; muscle, read-out: tacrolimus concentration in muscle): ~172 ng/g
